Laboratory results reported in the supplement of paper PMC11061612.

What was measured:
786-0 (Kidney Carcinoma) = assay: combination Emax (second highest fraction inhibited in the dose matrix, 72 h); higher = more inhibition; extreme values may be limits of the assay
Procedure, shortened: (§1)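 After 24 hours at 37°C and 5% CO2 in 1536-well plates, cells in DMEM/F12 or RPMI plus 10% FBS received two-drug dose matrices for 72 hours. Viability came from CellTiter-Glo 2.0 luminescence and was scaled as inhibition, anchored at 0 by vehicle wells and at 1 by blank wells. Combination Emax is taken as the second-highest inhibition in the matrix, and Bliss excess as the observed combination effect less EA + EB − EA·EB, with EA and EB the single-agent effects.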

[1] = system: RL95-2 (Endometrial Carcinoma); assay: as above
Procedure, shortened: as §1

[2] = system: OCI-AML5 (Acute Myeloid Leukemia); assay: as above
Procedure, shortened: as §1

CHL-1 (Melanoma) = assay: as above
Procedure, shortened: as §1

[3] = system: NCI-H1623 (Lung Adenocarcinoma); assay: as above
Procedure, shortened: as §1

[4] = system: HTC-C3 (Thyroid Gland Carcinoma); assay: as above
Procedure, shortened: as §1

[5] = system: FLO-1 (Esophageal Adenocarcinoma); assay: as above
Procedure, shortened: as §1

[6] = system: OVTOKO (Ovarian Carcinoma); assay: as above
Procedure, shortened: as §1

[7] = system: SNU-175 (Colorectal Carcinoma); assay: as above
Procedure, shortened: as §1

[8] = system: BALL-1 (B-Lymphoblastic Leukemia); assay: as above
Procedure, shortened: as §1

[9] = system: NCI-H1563 (Lung Adenocarcinoma); assay: as above
Procedure, shortened: as §1

[10] = system: RPMI-8866 (Chronic Myelogenous Leukemia); assay: as above
Procedure, shortened: as §1

[11] = system: NCI-H1755 (Lung Adenocarcinoma); assay: as above
Procedure, shortened: as §1

[12] = system: EB-3 (Burkitt's Lymphoma); assay: as above
Procedure, shortened: as §1

[13] = system: NKM-1 (Acute Myeloid Leukemia); assay: as above
Procedure, shortened: as §1

[14] = system: LOUCY (T-Lymphoblastic Leukemia); assay: as above
Procedure, shortened: as §1

[15] = system: COLO-684 (Endometrial Carcinoma); assay: as above
Procedure, shortened: as §1

HuO-3N1 (Osteosarcoma) = assay: Bliss excess, mean over the matrix (fraction); higher = more synergy
Procedure, shortened: as §1

[16] = system: NKM-1 (Acute Myeloid Leukemia); assay: as above
Procedure, shortened: as §1
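For Bliss excess, mean over the matrix in this document: after 72 h of two-drug dosing.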

| Structure (SMILES) | combination Emax (786-0 (Kidney Carcinoma)) | combination Emax [1] | combination Emax [2] | combination Emax (CHL-1 (Melanoma)) | combination Emax [3] | combination Emax [4] | combination Emax [5] | combination Emax [6] | combination Emax [7] | combination Emax [8] | combination Emax [9] | combination Emax [10] | combination Emax [11] | combination Emax [12] | combination Emax [13] | combination Emax [14] | combination Emax [15] | Bliss excess (HuO-3N1 (Osteosarcoma)) | Bliss excess [16] |
| --- | --- | --- | --- | --- | --- | --- | --- | --- | --- | --- | --- | --- | --- | --- | --- | --- | --- | --- | --- |
| CN(C)CCCOc1ccc(-c2ccc3ncc4c(c3c2)n(C2CCOCC2)c(=O)n4C)cn1 [AZD0156] + O=C(c1cc(Cc2n[nH]c(=O)c3ccccc23)ccc1F)N1CCN(C(=O)C2CC2)CC1 [Olaparib] (first compound max 3 µM, partner max 3 µM) | 0.223 | 0.384 | 0.139 | 0.186 | 0.333 | 0.142 | 0.289 | 0.33 | 0.553 | 0.79 | 0.246 | 0.285 | 0.414 | 0.568 | 0.585 | 0.368 | 0.307 | -0.0328 | 0.0587 |
| C=CCn1c(=O)c2cnc(Nc3ccc(N4CCN(C)CC4)cc3)nc2n1-c1cccc(C(C)(C)O)n1 [AZD1775] + C1CN(CCC1(C(=O)N[C@@H](CCO)C2=CC=C(C=C2)Cl)N)C3=NC=NC4=C3C=CN4 [Capivasertib] (first compound max 3 µM, partner max 3 µM) | 0.817 | 0.963 | 0.893 | 0.826 | 0.597 | 0.642 | 0.921 | 0.594 | 0.917 | 1 | 0.459 | 0.964 | 0.8 | 0.829 | 0.954 | 1 | 0.841 | -0.0033 | -0.0746 |
| COc1nnc2ccc(N3CCC(c4ccc(OCCN5CCN(C)C(=O)[C@H]5C)cc4)CC3)nn12 [AZD5153] + C=CCn1c(=O)c2cnc(Nc3ccc(N4CCN(C)CC4)cc3)nc2n1-c1cccc(C(C)(C)O)n1 [AZD1775] (first compound max 1 µM, partner max 1 µM) | 0.641 | 0.621 | 0.905 | 0.624 | 0.59 | 0.772 | 0.888 | 0.622 | 0.813 | 1 | 0.564 | 0.952 | 0.8 | 0.814 | 0.904 | 1 | 0.744 | -0.0584 | -0.124 |
| COc1nnc2ccc(N3CCC(c4ccc(OCCN5CCN(C)C(=O)[C@H]5C)cc4)CC3)nn12 [AZD5153] + CC1(C)CCC(CN2CCN(c3ccc(C(=O)NS(=O)(=O)c4ccc(NCC5CCOCC5)c([N+](=O)[O-])c4)c(Oc4cnc5[nH]ccc5c4)c3)CC2)=C(c2ccc(Cl)cc2)C1 [Venetoclax] (first compound max 1 µM, 7x7, partner max 1 µM) | 0.503 | 0.426 | 1 | 0.531 | 0.419 | 0.763 | 0.51 | 0.507 | 0.665 | 1 | 0.491 | 0.814 | 0.454 | 0.806 | 0.978 | 1 | 0.528 | -0.0576 | -0.0195 |
| COc1nnc2ccc(N3CCC(c4ccc(OCCN5CCN(C)C(=O)[C@H]5C)cc4)CC3)nn12 [AZD5153] + CCN(CCO)CCCOc1ccc2c(Nc3cc(CC(=O)Nc4cccc(F)c4)[nH]n3)ncnc2c1 [AZD2811] (first compound max 1 µM, 7x7, partner max 1 µM) | 0.552 | 0.524 | 0.985 | 0.58 | 0.488 | 0.818 | 0.565 | 0.539 | 0.83 | 0.948 | 0.488 | 0.872 | 0.654 | 0.757 | 0.922 | 0.97 | 0.553 | -0.0705 | -0.0201 |
| COc1nnc2ccc(N3CCC(c4ccc(OCCN5CCN(C)C(=O)[C@H]5C)cc4)CC3)nn12 [AZD5153] + CN(CC[C@H](CSC1=CC=CC=C1)NC2=C(C=C(C=C2)S(=O)(=O)NC(=O)C3=CC=C(C=C3)N4CCC(CC4)[C@H](C5=CC=CC=C5C6=CC=C(C=C6)Cl)O)S(=O)(=O)C(F)(F)F)CCO [AZD4320] (first compound max 1 µM, 7x7, partner max 1 µM) | 0.557 | 0.452 | 1 |  | 0.46 | 0.968 |  | 0.495 | 0.759 | 1 | 0.536 | 0.87 |  |  |  |  |  | 0.0645 |  |
| COc1nnc2ccc(N3CCC(c4ccc(OCCN5CCN(C)C(=O)[C@H]5C)cc4)CC3)nn12 [AZD5153] + C[C@@H]1COCCN1C2=NC(=NC(=C2)C3(CC3)[S@](=N)(=O)C)C4=C5C=CNC5=NC=C4 [AZD6738] (first compound max 1 µM, 7x7, partner max 10 µM) | 0.754 | 0.733 | 0.95 | 0.747 | 0.672 | 0.845 | 0.823 | 0.661 | 0.883 | 1 | 0.664 | 0.958 | 0.874 | 0.833 | 0.98 | 0.997 | 0.797 | 0.0085 | -0.0373 |
| COc1nnc2ccc(N3CCC(c4ccc(OCCN5CCN(C)C(=O)[C@H]5C)cc4)CC3)nn12 [AZD5153] + Cc1c2c(nn1C)CSCc1cc(n(C)n1)CSc1cc(c3ccccc3c1)OCCCc1c(C(=O)O)n(C)c3c-2c(Cl)ccc13 [AZD5991] (first compound max 1 µM, 7x7, partner max 1 µM) | 0.557 | 0.928 | 0.997 | 0.985 | 1 | 0.745 | 0.717 | 0.531 | 0.931 | 0.98 | 0.835 | 0.857 | 0.446 | 0.822 | 1 | 0.997 | 0.67 | -0.0118 | -0.0491 |
| COc1nnc2ccc(N3CCC(c4ccc(OCCN5CCN(C)C(=O)[C@H]5C)cc4)CC3)nn12 [AZD5153] + Cn1cnc2c(F)c(Nc3ccc(Br)cc3Cl)c(C(=O)NOCCO)cc21 [Selumetinib] (first compound max 1 µM, 7x7, partner max 10 µM) | 0.577 | 0.66 | 1 | 0.666 | 0.706 | 0.804 | 0.635 | 0.471 | 0.742 | 0.859 | 0.465 | 0.805 | 0.564 | 0.706 | 0.995 | 0.729 | 0.549 | -0.0026 | 0.0071 |
| NC1(C(=O)N[C@@H](CCO)c2ccc(Cl)cc2)CCN(c2ncnc3[nH]ccc23)CC1 [Capivasertib] + CC(=O)c1c(C)c2cnc(Nc3ccc(N4CCNCC4)cn3)nc2n(C2CCCC2)c1=O [Palbociclib] (first compound max 10 µM, 7x7, partner max 10 µM) | 0.681 | 0.904 | 0.479 | 0.191 | 0.506 | 0.474 | 0.551 | 0.572 | 0.634 | 0.597 | 0.47 | 0.75 | 0.659 | 0.428 | 0.796 | 0.688 | 0.632 | -0.105 | -0.0204 |
| NC1(C(=O)N[C@@H](CCO)c2ccc(Cl)cc2)CCN(c2ncnc3[nH]ccc23)CC1 [Capivasertib] + CC(C)n1c(=O)n(C)c2cnc3cc(F)c(-c4ccc(OCCCN5CCCCC5)nc4)cc3c21 [AZD1390] (first compound max 10 µM, 7x7, partner max 0.3 µM) | 0.489 | 0.823 | 0.22 | 0.126 | 0.477 | 0.308 | 0.346 | 0.516 | 0.269 | 0.576 | 0.452 | 0.402 | 0.443 | 0.522 | 0.459 | 0.623 | 0.56 | -0.101 | -0.111 |
| CC(=O)c1c(C)c2cnc(Nc3ccc(N4CCNCC4)cn3)nc2n(C2CCCC2)c1=O [Palbociclib] + CN(CC[C@H](CSC1=CC=CC=C1)NC2=C(C=C(C=C2)S(=O)(=O)NC(=O)C3=CC=C(C=C3)N4CCC(CC4)[C@H](C5=CC=CC=C5C6=CC=C(C=C6)Cl)O)S(=O)(=O)C(F)(F)F)CCO [AZD4320] (first compound max 10 µM, 7x7, partner max 1 µM) | 0.534 | 0.358 | 1 |  | 0.387 | 0.515 |  | 0.53 | 0.877 | 1 | 0.348 | 0.927 |  |  |  |  |  | -0.0289 |  |
| C[C@@H](c1ccc2nccn2c1)n1nnc2ncc(-c3cnn(C)c3)nc21 [Savolitinib] + CN(CC[C@H](CSC1=CC=CC=C1)NC2=C(C=C(C=C2)S(=O)(=O)NC(=O)C3=CC=C(C=C3)N4CCC(CC4)[C@H](C5=CC=CC=C5C6=CC=C(C=C6)Cl)O)S(=O)(=O)C(F)(F)F)CCO [AZD4320] (first compound max 1 µM, 7x7, partner max 1 µM) | 0.149 | 0.167 | 1 |  | 0.255 | 0.282 |  | 0.274 | 0.349 | 1 | 0.213 | 0.366 |  |  |  |  |  | -0.0513 |  |
